What all share (experiment): p-nitrophenyl glycoside hydrolysis, A405, […] min
Holding throughout (type): biochemical

For test [1], the target named is T1, α-L-fucosidase from Homo sapiens (Homo sapiens, UniProt P04066).
T1 construct: gene FUCA1
T1 sequence (P04066 32-466): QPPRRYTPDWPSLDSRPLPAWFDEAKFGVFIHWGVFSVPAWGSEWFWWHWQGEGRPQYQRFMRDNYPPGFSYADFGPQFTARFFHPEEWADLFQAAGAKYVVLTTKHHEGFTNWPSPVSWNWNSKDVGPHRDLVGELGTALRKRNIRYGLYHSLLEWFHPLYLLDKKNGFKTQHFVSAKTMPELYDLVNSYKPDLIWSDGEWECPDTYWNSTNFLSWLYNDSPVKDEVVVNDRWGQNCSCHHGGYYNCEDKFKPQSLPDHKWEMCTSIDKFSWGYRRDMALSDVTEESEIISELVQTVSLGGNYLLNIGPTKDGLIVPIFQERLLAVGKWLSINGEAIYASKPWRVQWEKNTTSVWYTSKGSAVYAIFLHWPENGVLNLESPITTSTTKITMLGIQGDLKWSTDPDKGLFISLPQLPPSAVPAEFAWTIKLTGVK
Conditions: read-out: α-L-Fuc.

The target of test [2] is α-galactosidase from Green coffee (Coffea arabica, UniProt Q42656). Conditions: read-out: α-Gal.
Test [3] has as its target T2, β-galactosidase from Escherichia coli (Escherichia coli, UniProt P00722).
T2 construct: gene lacZ
Conditions: read-out: β-Gal.

Each structure is given as a SMILES string. Structures can show the parent of a compound that is named as a salt.

T2 sequence (P00722 2-1024): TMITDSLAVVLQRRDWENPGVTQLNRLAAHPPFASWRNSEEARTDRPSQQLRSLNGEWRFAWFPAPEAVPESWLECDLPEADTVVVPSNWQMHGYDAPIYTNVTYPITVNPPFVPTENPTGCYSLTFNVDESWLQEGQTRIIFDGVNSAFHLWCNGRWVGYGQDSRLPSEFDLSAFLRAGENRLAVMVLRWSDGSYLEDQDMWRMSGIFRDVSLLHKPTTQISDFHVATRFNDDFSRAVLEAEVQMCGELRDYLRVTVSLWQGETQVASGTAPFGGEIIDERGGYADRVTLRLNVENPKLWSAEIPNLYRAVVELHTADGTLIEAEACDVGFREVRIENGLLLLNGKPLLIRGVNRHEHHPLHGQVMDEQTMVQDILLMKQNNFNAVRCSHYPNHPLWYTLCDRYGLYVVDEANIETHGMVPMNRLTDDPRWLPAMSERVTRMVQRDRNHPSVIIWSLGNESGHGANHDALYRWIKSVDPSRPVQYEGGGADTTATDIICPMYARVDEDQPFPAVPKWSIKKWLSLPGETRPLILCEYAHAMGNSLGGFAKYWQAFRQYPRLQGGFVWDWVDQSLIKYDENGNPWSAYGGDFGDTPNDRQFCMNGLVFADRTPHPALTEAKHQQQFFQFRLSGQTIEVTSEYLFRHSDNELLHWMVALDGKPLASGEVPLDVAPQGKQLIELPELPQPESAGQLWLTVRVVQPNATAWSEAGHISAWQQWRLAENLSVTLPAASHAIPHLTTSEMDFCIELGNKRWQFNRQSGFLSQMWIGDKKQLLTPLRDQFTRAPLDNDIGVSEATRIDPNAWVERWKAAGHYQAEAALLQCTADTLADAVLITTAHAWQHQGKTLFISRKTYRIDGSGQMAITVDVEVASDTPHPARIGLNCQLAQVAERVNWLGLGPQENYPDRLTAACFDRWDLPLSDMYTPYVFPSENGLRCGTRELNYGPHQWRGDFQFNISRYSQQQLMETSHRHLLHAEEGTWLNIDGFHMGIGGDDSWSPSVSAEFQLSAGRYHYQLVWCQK
Sequence of α-galactosidase from Green coffee (Q42656 16-378): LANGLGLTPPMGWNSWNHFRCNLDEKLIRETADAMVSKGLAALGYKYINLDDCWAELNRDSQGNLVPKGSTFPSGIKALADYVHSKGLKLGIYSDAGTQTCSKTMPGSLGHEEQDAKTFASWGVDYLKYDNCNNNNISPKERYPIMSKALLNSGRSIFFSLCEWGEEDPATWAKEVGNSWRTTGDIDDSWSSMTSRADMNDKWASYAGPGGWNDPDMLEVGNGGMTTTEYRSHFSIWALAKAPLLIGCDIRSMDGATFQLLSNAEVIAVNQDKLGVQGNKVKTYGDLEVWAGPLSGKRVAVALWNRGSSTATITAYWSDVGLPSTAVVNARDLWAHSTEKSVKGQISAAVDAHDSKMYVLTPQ

Regarding `C[C@@H]1NC[C@H]2[C@H](CO)[C@H]2[C@H]1O` [6b, (1S,4S,5R,6S,7S)-7-(hydroxymethyl)-4-methyl-3-azabicyclo[4.1.0]heptan-5-ol], the activity at 5000 µM in test [1] amounted to 142%.
Regarding `O=C(O)[C@H]1[C@@H]2CN[C@@H](CO)[C@@H](O)[C@@H]21` [10a, (1R,4S,5S,6S,7S)-7-carboxy-5-hydroxy-4-(hydroxymethyl)-3-azabicyclo[4.1.0]heptan-3-ium trifluoroacetate], the activity at 5000 µM in test [2] was 154%.
Turning to `OC[C@@H]1[C@@H]2CN[C@@H](CO)[C@@H](O)[C@H]12` [11b], the activity at 5000 µM in test [3] was 25%.

For the origin of these results see paper PMC7828477, “Synthesis and Evaluation of Novel Iminosugars Prepared from Natural Amino Acids” (Molecules, 2021).
